Results on twelve compounds are retold here after patent publication US20260234157A1, “COMPOUND AND METHOD FOR TARGETED DEGRADATION OF ANDROGEN RECEPTOR” (Gan & Lee Pharmaceuticals Co., Ltd., priority 2023, published 2026).

In one experiment the test system is LNCaP FGC cells. Put plainly: Inhibition of proliferation of LNCaP cells (WST-8). The format is cell-based. The conditions noted are these: Homo sapiens, LNCaP, 96 h, LNCaP FGC cells, 96 hours, WST-8 absorbance at 450 nm; read-out: IC50 for inhibiting the proliferation of LNCaP cells. How it is done:
The cells were cultured in a cell culture incubator with 5% CO2 at 37° C. overnight. […] On the sixth day, 96 well plates were taken out, and 20 μL of WST-8 (Beytime, C0040) reagent was added to each well.
In general terms: Tetrazolium assays rely on reduction of a dye to a coloured formazan, in cell work by metabolically active cells.
Turning to `COC1(CN2CCC3(CC2)COc2c(ccc4c2C(=O)N(C2CCC(=O)NC2=O)C4)C3)CCN(c2ccc(C(=O)NC3CCC(Oc4ccc(C#N)c(Cl)c4)CC3)nn2)CC1` (stereo not drawn) [Compound 186], the IC50 was 0.85 µM.

For `COC1(CN2CCC3(CC2)Cc2cc4c(cc2O3)C(=O)N(C2CCC(=O)NC2=O)C4=O)CCN(c2ccc(C(=O)N[C@H]3CC[C@H](Oc4ccc(C#N)c(Cl)c4)CC3)nn2)CC1` (stereo partly drawn) [Compound 199], the IC50 was 1.11 µM.

The same experiment, now with this note: Homo sapiens, LNCaP, 96 h, read-out: IC50 for inhibiting the proliferation of LNCaP cells, LNCaP FGC cells, 96 hours, WST-8 absorbance at 450 nm.
For `CC1(C)C(=O)N(c2ccc(C#N)c(C(F)(F)F)c2)C(=S)N1c1ccc(C(=O)N2CC3(CCC(N4CCC5(CC4)COc4cc6c(cc4C5)C(=O)N(C4CCC(=O)NC4=O)C6=O)CC3)C2)c(F)c1` (stereo not drawn) [Compound 86], the IC50 was 4.53 µM.

As to `COC1(CN2CC3(CCc4cc5c(cc4O3)CN(C3CCC(=O)NC3=O)C5=O)C2)CCN(C(=O)c2ccc(N3C(=S)N(c4ccc(C#N)c(C(F)(F)F)c4)C(=O)C3(C)C)cc2F)CC1` (stereo not drawn) [Compound 89], the IC50 was 3.24 µM.

Regarding `CC1(C)C(=O)N(c2ccc(C#N)c(C(F)(F)F)c2)C(=S)N1c1ccc(C(=O)N2CC3(CC(N4CCC5(CCc6cc7c(cc6O5)C(=O)N(C5CCC(=O)NC5=O)C7=O)CC4)C3)C2)c(F)c1` (stereo not drawn) [Compound 100], the IC50 turned out to be 27.9 µM.

Consider `CC1(C)C(=O)N(c2ccc(C#N)c(C(F)(F)F)c2)C(=S)N1c1ccc(C(=O)N2CC(N3CCC4(CC3)COc3cc5c(cc3C4)C(=O)N(C3CCC(=O)NC3=O)C5=O)C2)c(F)c1` (stereo not drawn) [Compound 112], for which the IC50 turned out to be 8.18 µM.

As for `CC1(C)C(=O)N(c2ccc(C#N)c(C(F)(F)F)c2)C(=S)N1c1ccc(C(=O)N2CCC3(CCC(N4CCC5(CC4)COc4cc6c(cc4C5)C(=O)N(C4CCC(=O)NC4=O)C6=O)CC3)CC2)c(F)c1` (stereo not drawn) [Compound 113], the IC50 turned out to be 5.56 µM.

`CC1(CN2CCC3(CC2)COc2cc4c(cc2C3)C(=O)N(C2CCC(=O)NC2=O)C4=O)CCN(C(=O)c2ccc(N3C(=S)N(c4ccc(C#N)c(C(F)(F)F)c4)C(=O)C3(C)C)cc2F)CC1` (stereo not drawn) [Compound 114]: the IC50 came out at 7.63 µM.

As for `CC1(C)C(=O)N(c2ccc(C#N)c(C(F)(F)F)c2)C(=S)N1c1ccc(C(=O)N2CCC3(CC2)CC(N2CCC4(CC2)COc2cc5c(cc2C4)C(=O)N(C2CCC(=O)NC2=O)C5=O)C3)c(F)c1` (stereo not drawn) [Compound 123], the IC50 was found to be 2.71 µM.

For the compound `CC1(C)C(=O)N(c2ccc(C#N)c(C(F)(F)F)c2)C(=S)N1c1ccc(C(=O)N2CC[C@H](CN3CCC4(CC3)COc3cc5c(cc34)C(=O)N(C3CCC(=O)NC3=O)C5=O)C2)c(F)c1` (stereo partly drawn) [Compound 125], the IC50 worked out at 6.97 µM.

`CC1(C)C(=O)N(c2ccc(C#N)c(C(F)(F)F)c2)C(=S)N1c1ccc(C(=O)N2CCC3(CCC(N4CCC5(CC4)COc4cc6c(cc4C5)C(=O)N(C4CCC(=O)NC4=O)C6=O)CC3)C2)c(F)c1` (stereo not drawn) [Compound 130]: the IC50 amounted to 2.66 µM.

`N#Cc1ccc(O[C@H]2CC[C@H](NC(=O)c3ccc(N4CC5(CCC(N6CCC(N7CCC8(CC7)COc7c8ccc8c7CN(C7CCC(=O)NC7=O)C8=O)CC6)CC5)C4)nn3)CC2)cc1Cl` (stereo partly drawn) [Compound 175]: the IC50 stood at 8.07 µM.

In another experiment the test system is VCaP cells. Put plainly: Inhibition of proliferation of VCaP cells (WST-8). The format is cell-based. The conditions noted are these: Homo sapiens, VCaP, 168 h, read-out: IC50 for inhibiting the proliferation of VCaP cells. The protocol:
The inhibitory activity of the compounds disclosed in the present disclosure on the proliferation of VCaP cells
On the first day of the experiment, […] were inoculated in 96 well plates at a density of 15000 cells per well using DMEM medium containing 10% fetal bovine serum, with 100 μL of cell suspension per well. The cells were cultured in a cell culture incubator with 5% CO2 at 37° C. overnight. […] On the ninth day, 96 well plates were taken out, and 20 μL of WST-8 (Beytime, C0040) reagent was added to each well.
For the compound `CC1(C)C(=O)N(c2ccc(C#N)c(C(F)(F)F)c2)C(=S)N1c1ccc(C(=O)N2CC3(CCC(N4CCC5(CC4)COc4cc6c(cc4C5)C(=O)N(C4CCC(=O)NC4=O)C6=O)CC3)C2)c(F)c1` (stereo not drawn) [Compound 86], the IC50 is 2.49 µM.

On to `COC1(CN2CC3(CCc4cc5c(cc4O3)CN(C3CCC(=O)NC3=O)C5=O)C2)CCN(C(=O)c2ccc(N3C(=S)N(c4ccc(C#N)c(C(F)(F)F)c4)C(=O)C3(C)C)cc2F)CC1` (stereo not drawn) [Compound 89], for which the IC50 was determined as 0.35 µM.

Take `CC1(C)C(=O)N(c2ccc(C#N)c(C(F)(F)F)c2)C(=S)N1c1ccc(C(=O)N2CC3(CC(N4CCC5(CCc6cc7c(cc6O5)C(=O)N(C5CCC(=O)NC5=O)C7=O)CC4)C3)C2)c(F)c1` (stereo not drawn) [Compound 100]: the IC50 is 0.62 µM.

With `CC1(C)C(=O)N(c2ccc(C#N)c(C(F)(F)F)c2)C(=S)N1c1ccc(C(=O)N2CC(N3CCC4(CC3)COc3cc5c(cc3C4)C(=O)N(C3CCC(=O)NC3=O)C5=O)C2)c(F)c1` (stereo not drawn) [Compound 112], the IC50 came out at 5.12 µM.

Take `CC1(C)C(=O)N(c2ccc(C#N)c(C(F)(F)F)c2)C(=S)N1c1ccc(C(=O)N2CCC3(CCC(N4CCC5(CC4)COc4cc6c(cc4C5)C(=O)N(C4CCC(=O)NC4=O)C6=O)CC3)CC2)c(F)c1` (stereo not drawn) [Compound 113]: the IC50 was determined as 2.81 µM.

For `CC1(CN2CCC3(CC2)COc2cc4c(cc2C3)C(=O)N(C2CCC(=O)NC2=O)C4=O)CCN(C(=O)c2ccc(N3C(=S)N(c4ccc(C#N)c(C(F)(F)F)c4)C(=O)C3(C)C)cc2F)CC1` (stereo not drawn) [Compound 114], the IC50 worked out at 3.29 µM.

As to `CC1(C)C(=O)N(c2ccc(C#N)c(C(F)(F)F)c2)C(=S)N1c1ccc(C(=O)N2CCC3(CC2)CC(N2CCC4(CC2)COc2cc5c(cc2C4)C(=O)N(C2CCC(=O)NC2=O)C5=O)C3)c(F)c1` (stereo not drawn) [Compound 123], the IC50 was 3.38 µM.

`CC1(C)C(=O)N(c2ccc(C#N)c(C(F)(F)F)c2)C(=S)N1c1ccc(C(=O)N2CC[C@H](CN3CCC4(CC3)COc3cc5c(cc34)C(=O)N(C3CCC(=O)NC3=O)C5=O)C2)c(F)c1` (stereo partly drawn) [Compound 125]: the IC50 was determined as 9.29 µM.

On to `CC1(C)C(=O)N(c2ccc(C#N)c(C(F)(F)F)c2)C(=S)N1c1ccc(C(=O)N2CCC3(CCC(N4CCC5(CC4)COc4cc6c(cc4C5)C(=O)N(C4CCC(=O)NC4=O)C6=O)CC3)C2)c(F)c1` (stereo not drawn) [Compound 130], for which the IC50 worked out at 3.61 µM.

In the case of `N#Cc1ccc(O[C@H]2CC[C@H](NC(=O)c3ccc(N4CC5(CCC(N6CCC(N7CCC8(CC7)COc7c8ccc8c7CN(C7CCC(=O)NC7=O)C8=O)CC6)CC5)C4)nn3)CC2)cc1Cl` (stereo partly drawn) [Compound 175], the IC50 was 0.01 µM.

Still in this experiment, the particulars now being: Homo sapiens; VCaP cells, 168 hours, WST-8 absorbance at 450 nm; read-out: IC50 for inhibiting the proliferation of VCaP cells.
Turning to `COC1(CN2CCC3(CC2)COc2c(ccc4c2C(=O)N(C2CCC(=O)NC2=O)C4)C3)CCN(c2ccc(C(=O)NC3CCC(Oc4ccc(C#N)c(Cl)c4)CC3)nn2)CC1` (stereo not drawn) [Compound 186], the IC50 amounted to 0.02 µM.

For the compound `COC1(CN2CCC3(CC2)Cc2cc4c(cc2O3)C(=O)N(C2CCC(=O)NC2=O)C4=O)CCN(c2ccc(C(=O)N[C@H]3CC[C@H](Oc4ccc(C#N)c(Cl)c4)CC3)nn2)CC1` (stereo partly drawn) [Compound 199], the IC50 came to 0.57 µM.
